Results on 24 compounds are retold here after article PMC7281298, “Exploring Kinase Inhibition Properties of 9H-pyrimido[5,4-b]- and [4,5-b]indol-4-amine Derivatives” (Pharmaceuticals, 2020).

Where two headings read alike, the source gives them in different places.

Assay [1] addresses CK1δ/ε. The experiment in a line: Kinase inhibition assay, CK1δ/ε. The format is biochemical. Conditions: for IC50: average of triplicate determination (<10% variation), read-out: Kinase inhibitory potency (IC50) CK1δ/ε. Here is the method:
(§1) The inhibitory potency of the synthesized pyrimido[4,5-b]indol-4-amines and pyrimido[5,4-b]indol-4-amines towards CDK5/p25, CK1δ/ε, DYRK1A, and GSK-3α/β was investigated according preceding procedures.
(§2) Buffers, kinase preparations, and assays were performed as described in ref. [12, 13, 14] according methods initially published in previous works.

Assay [2] deals with T1, DYRK1A (Homo sapiens, UniProt Q13627). The experiment in a line: Kinase inhibition assay, DYRK1A. The assay is classed as biochemical. Particulars: for IC50: read-out: Kinase inhibitory potency (IC50) DYRK1A. Here is the method: as §1, §2
Assay [3] concerns the target CDK5/p25 (Homo sapiens, UniProt Q00535). The assay can be described thus: Kinase inhibition assay, CDK5/p25. The format is biochemical. Conditions: for IC50: average of triplicate determination (<10% variation), read-out: Kinase inhibitory potency (IC50) CDK5/p25. As to the method:
as §1, §2

Assay [4] has as its target GSK-3α/β. The experiment in a line: Kinase inhibition assay, GSK-3α/β. Particulars: for IC50: average of triplicate determination (<10% variation), read-out: Kinase inhibitory potency (IC50) GSK-3α/β. The assay is classed as biochemical. As to the method:
as §1, §2

Assay [5] deals with T1, DYRK1A. Further details: method as in PMID 23237976, PMID 23124214, PMID 25549552. Conditions: thieno[2,3-d]pyrimidin-4-amine congeners, already published data; cited from earlier work.
In assay [6] the test system is CK1δ/ε. Further details: method as in PMID 23237976, PMID 23124214, PMID 25549552. Particulars: already published data, cited from earlier work; for IC50: thieno[2,3-d]pyrimidin-4-amine congeners.
Where [7] appears, read: average of triplicate determination (<10% variation).

Sequence of CDK5/p25 (Q00535 whole entry, species assumed): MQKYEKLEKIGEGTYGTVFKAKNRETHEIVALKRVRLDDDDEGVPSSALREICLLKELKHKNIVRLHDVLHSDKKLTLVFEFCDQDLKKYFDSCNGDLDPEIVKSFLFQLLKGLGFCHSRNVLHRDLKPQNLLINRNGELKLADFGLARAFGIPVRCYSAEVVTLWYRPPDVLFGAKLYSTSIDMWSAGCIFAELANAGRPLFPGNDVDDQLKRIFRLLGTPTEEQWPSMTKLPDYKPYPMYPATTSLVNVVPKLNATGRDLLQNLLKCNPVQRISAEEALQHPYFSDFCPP
Sequence of CDK5/p25 (Q15078 99-307 partner limits assumed, species assumed): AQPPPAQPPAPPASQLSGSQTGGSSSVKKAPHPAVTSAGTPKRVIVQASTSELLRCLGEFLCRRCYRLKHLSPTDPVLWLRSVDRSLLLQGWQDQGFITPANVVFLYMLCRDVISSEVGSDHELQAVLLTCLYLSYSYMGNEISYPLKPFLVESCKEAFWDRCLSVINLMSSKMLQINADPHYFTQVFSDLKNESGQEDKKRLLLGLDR

In the case of `Nc1ncnc2c3cc([N+](=O)[O-])ccc3n(Cc3ccccc3)c12` [Compound 2d, 5-Benzyl-8-nitro-5H-pyrimido[5,4-b]indol-4-amine], the IC50 in assay [1], in assay [2] (setting [7]), in assay [3] and in assay [4] was over 10 µM throughout.
Turning to `Nc1ncnc2c1sc1cccnc12` [Compound 14], the IC50 in assay [5] was 6 µM; in assay [6] it was 1.8 µM. In addition, the “Activity against CK1 (in words)” value in assay [6] was “micromolar and submicromolar activity”.
As to `COc1ccc2c3ccnc(C)c3n(C)c2c1` [Compound 11b, 7-Methoxy-1,9-dimethyl-β-carboline], in assay [1], the “Inhibitory activity against CK1δ/ε (in words)” value was “totally inactive” and the IC50 was over 10 µM. In assay [3], the “Inhibitory activity against CDK5/p25 (in words)” value is “totally inactive” and the IC50 is over 10 µM. Also, in assay [4], the “Inhibitory activity against GSK3α/β (in words)” value was “totally inactive” and the IC50 was over 10 µM.
Turning to `CCn1c2ccccc2c2c(N)ncnc21` [Compound 3c, 9-Ethyl-9H-pyrimido[4,5-b]indol-4-amine], the IC50 in assay [1] was 1.6 µM; in assay [2] (setting [7]), 9.8 µM; in assay [3], over 10 µM; in assay [4] it was over 10 µM.
In the case of `Nc1ncnc2[nH]c3cc([N+](=O)[O-])ccc3c12` [Compound 4a, 7-Nitro-9H-pyrimido[4,5-b]indol-4-amine], the IC50 in assay [1] was 3.5 µM; in assay [2] (setting [7]), 7.6 µM; in assay [3], over 10 µM; in assay [4] it was over 10 µM.
`Nc1ncnc2c1[nH]c1ccccc12` [Compound 1a, 5H-Pyrimido[5,4-b]indol-4-amine]: the IC50 is 2 µM in assay [1], 2.2 µM in assay [2] (setting [7]), over 10 µM in assay [3] and over 10 µM in assay [4].
Turning to `CCn1c2cc([N+](=O)[O-])ccc2c2c(N)ncnc21` [Compound 4c, 9-Ethyl-7-nitro-9H-pyrimido[4,5-b]indol-4-amine], the IC50 is 1.6 µM in assay [1], 5.9 µM in assay [2] (setting [7]), over 10 µM in assay [3] and over 10 µM in assay [4].
As to `Cn1c2ccccc2c2c(N)ncnc21` [Compound 3b, 9-Methyl-9H-pyrimido[4,5-b]indol-4-amine], the IC50 was 2.5 µM in assay [1], over 10 µM in assay [2] (setting [7]), over 10 µM in assay [3] and over 10 µM in assay [4].
For `CCn1c2cc(OC)ccc2c2ccnc(C)c21` [Compound 11c, 9-Ethyl-7-methoxy-1-methyl-β-carboline], the “Inhibitory activity against CK1δ/ε (in words)” value in assay [1] is “totally inactive”. For the same compound, the IC50 was over 10 µM in assay [1], 0.037 µM in assay [2], over 10 µM in assay [3] and over 10 µM in assay [4]. Moreover, in assay [3], the “Inhibitory activity against CDK5/p25 (in words)” value is “totally inactive”. Also, the “Inhibitory activity against GSK3α/β (in words)” value in assay [4] is “totally inactive”.
Consider `CCn1c2ccc([N+](=O)[O-])cc2c2ncnc(N)c21` [Compound 2c, 5-Ethyl-8-nitro-5H-pyrimido[5,4-b]indol-4-amine], for which the IC50 in assay [1], in assay [2] (setting [7]), in assay [3] and in assay [4] was over 10 µM in each case.
On to `COc1ccc2c(c1)[nH]c1c(C)nccc12` [Compound 11a, harmine, reference compound], for which the IC50 in assay [1] is 1.5 µM. The “Inhibitory activity against CDK5/p25 (in words)” value in assay [3] is “definitely inactive”. Moreover, in assay [4], the “Inhibitory activity against GSK3α/β (in words)” value was “definitely inactive” and the IC50 was over 10 µM.
On to `Nc1ncnc2c1sc1ncccc12` [Compound 15], for which the IC50 in assay [5] is over 10 µM. In assay [6], the “Activity against CK1 (in words)” value is “micromolar and submicromolar activity”; the IC50 is 0.031 µM.
As to `Cn1c2ccccc2c2ncnc(N)c21` [Compound 1b, 5-Methyl-5H-pyrimido[5,4-b]indol-4-amine], the IC50 in assay [1] was 4 µM; in assay [2] (setting [7]), 5.8 µM; in assay [3], over 10 µM; in assay [4], over 10 µM.
As to `Nc1ncnc2c1sc1ccccc12` [Compound 12], the IC50 in assay [5] is 33 µM; in assay [6], 0.79 µM.
`CCn1c2ccccc2c2ncnc(N)c21` [Compound 1c, 5-Ethyl-5H-pyrimido[5,4-b]indol-4-amine]: the IC50 was 2.8 µM in assay [1], 4.1 µM in assay [2] (setting [7]), over 10 µM in assay [3] and over 10 µM in assay [4].
Regarding `Nc1ncnc2c1[nH]c1ccc([N+](=O)[O-])cc12` [Compound 2a, 8-Nitro-5H-pyrimido[5,4-b]indol-4-amine], the “Inhibitory activity against CK1δ/ε (in words)” value in assay [1] was “no inhibition”. Besides, the IC50 is over 10 µM in assay [1], 7.6 µM in assay [2] (setting [7]), over 10 µM in assay [3] and over 10 µM in assay [4]. For the same compound, the “Inhibitory activity against DYRK1A (in words)” value in assay [2] is “low micromolar activity”.
As to `Cn1c2ccc([N+](=O)[O-])cc2c2ncnc(N)c21` [Compound 2b, 5-Methyl-8-nitro-5H-pyrimido[5,4-b]indol-4-amine], the IC50 in assay [1], in assay [2] (setting [7]), in assay [3] and in assay [4] was over 10 µM each time.
For the compound `Nc1ncnc2c1sc1nccnc12` [Compound 13], the results for the IC50 in assay [5] and in assay [6] were over 10 µM and 2.4 µM, respectively. The “Activity against CK1 (in words)” value in assay [6] was “micromolar and submicromolar activity”.
For the compound `Nc1ncnc2c3ccccc3n(Cc3ccccc3)c12` [Compound 1d, 5-Benzyl-5H-pyrimido[5,4-b]indol-4-amine], the IC50 in assay [1] was 0.6 µM; in assay [2] (setting [7]) it was over 10 µM; in assay [3], over 10 µM; in assay [4], over 10 µM. In addition, the “Inhibitory activity against DYRK1A (in words)” value in assay [2] is “lack of activity”.
For the compound `Cn1c2cc([N+](=O)[O-])ccc2c2c(N)ncnc21` [Compound 4b, 9-Methyl-7-nitro-9H-pyrimido[4,5-b]indol-4-amine], the IC50 in assay [1] is 2.8 µM; in assay [2] (setting [7]), over 10 µM; in assay [3], over 10 µM; in assay [4], over 10 µM.
For `Nc1ncnc2c1c1ccc([N+](=O)[O-])cc1n2Cc1ccccc1` [Compound 4d, 9-Benzyl-7-nitro-9H-pyrimido[4,5-b]indol-4-amine], the IC50 in assay [1], in assay [2] (setting [7]), in assay [3] and in assay [4] was over 10 µM in each case.
For `Nc1ncnc2[nH]c3ccccc3c12` [Compound 3a, 9H-Pyrimido[4,5-b]indol-4-amine], the IC50 in assay [1] was 0.7 µM; in assay [2] (setting [7]), 3.1 µM; in assay [3] it was 6 µM; in assay [4] it was over 10 µM.
Turning to `COc1ccc2c3ccnc(C)c3n(Cc3ccccc3)c2c1` [Compound 11d, 9-Benzyl-7-methoxy-1-methyl-β-carboline], in assay [1], the “Inhibitory activity against CK1δ/ε (in words)” value is “totally inactive” and the IC50 is over 10 µM. The IC50 in assay [2] (setting [7]) turned out to be 0.059 µM. For the same compound, in assay [3], the “Inhibitory activity against CDK5/p25 (in words)” value was “totally inactive” and the IC50 was over 10 µM. In assay [4], the “Inhibitory activity against GSK3α/β (in words)” value was “totally inactive” and the IC50 is over 10 µM.
`Nc1ncnc2c1c1ccccc1n2Cc1ccccc1` [Compound 3d, 9-Benzyl-9H-pyrimido[4,5-b]indol-4-amine]: the IC50 in assay [1] was 2.7 µM; in assay [2] (setting [7]) it was over 10 µM; in assay [3], over 10 µM; in assay [4], over 10 µM.
